Results published in PubChem BioAssay (NCI).
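Tested at 5 concentrations; 48 h exposure; 96-well plates; endpoints linearly interpolated, else capped at highest concentration. Abbreviation: GI50, concentration required for 50% inhibition of growth. TGI: total growth inhibition.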

Experiments:
Assay in all cases: NCI-60 cell line screen, 48 h
DU-145 prostate = test system: DU-145 prostate
CAKI-1 renal = test system: CAKI-1 renal
A549 NSCLC = test system: A549 NSCLC
RXF 393 renal = test system: RXF 393 renal
IGROV1 ovarian = test system: IGROV1 ovarian
SW-620 colon = test system: SW-620 colon
OVCAR-8 ovarian = test system: OVCAR-8 ovarian
NCI/ADR-RES ovarian = test system: NCI/ADR-RES ovarian
EKVX NSCLC = test system: EKVX NSCLC
MCF7 breast = test system: MCF7 breast
PC-3 prostate = test system: PC-3 prostate
OVCAR-3 ovarian = test system: OVCAR-3 ovarian
K-562 leukemia = test system: K-562 leukemia
HCC-2998 colon = test system: HCC-2998 colon
HCT-116 colon = test system: HCT-116 colon
SK-MEL-5 melanoma = test system: SK-MEL-5 melanoma
786-0 renal = test system: 786-0 renal
OVCAR-4 ovarian = test system: OVCAR-4 ovarian
ACHN renal = test system: ACHN renal
KM12 colon = test system: KM12 colon
MDA-MB-435 = test system: MDA-MB-435
NCI-H460 lung = test system: NCI-H460 lung
NCI-H23 lung = test system: NCI-H23 lung
MDA-MB-231 breast = test system: MDA-MB-231 breast
SNB-19 CNS = test system: SNB-19 CNS
SF-539 CNS = test system: SF-539 CNS
OVCAR-5 ovarian = test system: OVCAR-5 ovarian
LOX IMVI melanoma = test system: LOX IMVI melanoma
UO-31 renal = test system: UO-31 renal
RPMI-8226 leukemia = test system: RPMI-8226 leukemia
HOP-62 NSCLC = test system: HOP-62 NSCLC
U251 CNS = test system: U251 CNS
HS 578T breast = test system: HS 578T breast
SF-268 CNS = test system: SF-268 CNS
BT-549 breast = test system: BT-549 breast
M14 melanoma = test system: M14 melanoma
SN12C renal = test system: SN12C renal
SF-295 CNS = test system: SF-295 CNS
MOLT-4 leukemia = test system: MOLT-4 leukemia
HT29 colon = test system: HT29 colon
MALME-3M melanoma = test system: MALME-3M melanoma
HL-60(TB) leukemia = test system: HL-60(TB) leukemia
UACC-62 melanoma = test system: UACC-62 melanoma
SK-OV-3 ovarian = test system: SK-OV-3 ovarian
NCI-H226 lung = test system: NCI-H226 lung
COLO 205 colon = test system: COLO 205 colon
UACC-257 melanoma = test system: UACC-257 melanoma
A498 renal = test system: A498 renal
TK-10 renal = test system: TK-10 renal
CCRF-CEM leukemia = test system: CCRF-CEM leukemia
SR leukemia = test system: SR leukemia
SK-MEL-28 melanoma = test system: SK-MEL-28 melanoma
HCT-15 colon = test system: HCT-15 colon
SK-MEL-2 melanoma = test system: SK-MEL-2 melanoma
SNB-75 CNS = test system: SNB-75 CNS
T-47D breast = test system: T-47D breast
NCI-H522 lung = test system: NCI-H522 lung
HOP-92 NSCLC = test system: HOP-92 NSCLC

In the case of `O=[N+]([O-])/C(C(Cl)=C(Cl)Cl)=C1\NCCS1`, the TGI (DU-145 prostate) is reported as > 100 µM, the TGI (CAKI-1 renal) is reported as > 100 µM and the TGI (A549 NSCLC) is reported as > 100 µM. The TGI (RXF 393 renal) was 58.8 µM, the TGI (IGROV1 ovarian) was > 100 µM and the TGI (SW-620 colon) was > 100 µM. The TGI (OVCAR-8 ovarian) was > 100 µM, the TGI (NCI/ADR-RES ovarian) was > 100 µM and the TGI (EKVX NSCLC) was > 100 µM. The TGI (MCF7 breast) was > 100 µM, the TGI (PC-3 prostate) was > 100 µM and the TGI (OVCAR-3 ovarian) was > 100 µM. The TGI (K-562 leukemia) was 41.4 µM, the TGI (HCC-2998 colon) was > 100 µM and the TGI (HCT-116 colon) was > 100 µM. For the same compound, the TGI (SK-MEL-5 melanoma) was > 100 µM, the TGI (786-0 renal) was > 100 µM and the TGI (OVCAR-4 ovarian) was > 100 µM. The TGI (ACHN renal) was > 100 µM, the TGI (KM12 colon) was > 100 µM and the TGI (MDA-MB-435) was > 100 µM. For the same compound, the TGI (NCI-H460 lung) was > 100 µM, the TGI (NCI-H23 lung) was > 100 µM and the TGI (MDA-MB-231 breast) was > 100 µM. The TGI (SNB-19 CNS) was > 100 µM, the TGI (SF-539 CNS) was > 100 µM and the TGI (OVCAR-5 ovarian) was > 100 µM. The TGI (LOX IMVI melanoma) was 44.1 µM, the TGI (UO-31 renal) was > 100 µM and the TGI (RPMI-8226 leukemia) was 54.5 µM. For the same compound, the TGI (HOP-62 NSCLC) was > 100 µM, the TGI (U251 CNS) was > 100 µM and the TGI (HS 578T breast) was > 100 µM. For the same compound, the TGI (SF-268 CNS) was > 100 µM, the TGI (BT-549 breast) was > 100 µM and the TGI (M14 melanoma) was > 100 µM. For the same compound, the TGI (SN12C renal) was > 100 µM, the TGI (SF-295 CNS) was > 100 µM and the TGI (MOLT-4 leukemia) was 62.4 µM. The TGI (HT29 colon) was > 100 µM, the TGI (MALME-3M melanoma) was 92.6 µM and the TGI (HL-60(TB) leukemia) was 48.3 µM. The TGI (UACC-62 melanoma) was > 100 µM, the TGI (SK-OV-3 ovarian) was > 100 µM and the TGI (NCI-H226 lung) was > 100 µM. For the same compound, the TGI (COLO 205 colon) was > 100 µM, the TGI (UACC-257 melanoma) was > 100 µM and the TGI (A498 renal) was > 100 µM. The TGI (TK-10 renal) was > 100 µM, the TGI (CCRF-CEM leukemia) was 46.2 µM and the TGI (SR leukemia) was 46.4 µM. The TGI (SK-MEL-28 melanoma) was > 100 µM and the TGI (HCT-15 colon) was > 100 µM.

In the case of `Cc1c2c(nn1-c1ccc(S/N=C3\SCC(=O)CN3Cc3ccccc3)cc1)-c1ccccc1CC2`, the GI50 (DU-145 prostate) is reported as 50.5 µM, the TGI (DU-145 prostate) is reported as > 100 µM and the GI50 (CAKI-1 renal) is reported as 26.6 µM. For the same compound, the TGI (CAKI-1 renal) was 87.6 µM, the GI50 (A549 NSCLC) was 46.7 µM and the TGI (A549 NSCLC) was > 100 µM. The GI50 (RXF 393 renal) was 22.6 µM, the TGI (RXF 393 renal) was 54.7 µM and the GI50 (IGROV1 ovarian) was 24 µM. The TGI (IGROV1 ovarian) was > 100 µM, the GI50 (SW-620 colon) was 25.5 µM and the TGI (SW-620 colon) was > 100 µM. The GI50 (OVCAR-8 ovarian) was 41 µM, the TGI (OVCAR-8 ovarian) was > 100 µM and the GI50 (NCI/ADR-RES ovarian) was 39.2 µM. The TGI (NCI/ADR-RES ovarian) was > 100 µM, the GI50 (EKVX NSCLC) was 46.6 µM and the TGI (EKVX NSCLC) was > 100 µM. For the same compound, the GI50 (MCF7 breast) was 3.74 µM, the TGI (MCF7 breast) was 35 µM and the GI50 (PC-3 prostate) was 27.7 µM. The TGI (PC-3 prostate) was > 100 µM, the GI50 (OVCAR-3 ovarian) was 25.2 µM and the TGI (OVCAR-3 ovarian) was 68.3 µM. For the same compound, the GI50 (K-562 leukemia) was 30.1 µM, the TGI (K-562 leukemia) was > 100 µM and the GI50 (HCC-2998 colon) was 72.9 µM. The TGI (HCC-2998 colon) was > 100 µM, the GI50 (SK-MEL-5 melanoma) was 9.08 µM and the TGI (SK-MEL-5 melanoma) was 29.5 µM. For the same compound, the GI50 (786-0 renal) was 89.2 µM, the TGI (786-0 renal) was > 100 µM and the GI50 (OVCAR-4 ovarian) was 96.7 µM. For the same compound, the TGI (OVCAR-4 ovarian) was > 100 µM, the GI50 (ACHN renal) was 32.9 µM and the TGI (ACHN renal) was > 100 µM. The GI50 (KM12 colon) was 60.1 µM, the TGI (KM12 colon) was > 100 µM and the GI50 (MDA-MB-435) was 20.6 µM. For the same compound, the TGI (MDA-MB-435) was 48.5 µM, the GI50 (NCI-H460 lung) was 29.4 µM and the TGI (NCI-H460 lung) was > 100 µM. The GI50 (SK-MEL-2 melanoma) was 58.2 µM, the TGI (SK-MEL-2 melanoma) was > 100 µM and the GI50 (NCI-H23 lung) was 49.8 µM. The TGI (NCI-H23 lung) was > 100 µM, the GI50 (SNB-75 CNS) was 75.9 µM and the TGI (SNB-75 CNS) was > 100 µM. For the same compound, the GI50 (MDA-MB-231 breast) was 24.8 µM, the TGI (MDA-MB-231 breast) was 87.3 µM and the GI50 (SNB-19 CNS) was > 100 µM. For the same compound, the TGI (SNB-19 CNS) was > 100 µM, the GI50 (SF-539 CNS) was 29.5 µM and the TGI (SF-539 CNS) was 58.2 µM. For the same compound, the GI50 (OVCAR-5 ovarian) was > 100 µM, the TGI (OVCAR-5 ovarian) was > 100 µM and the GI50 (LOX IMVI melanoma) was 10.7 µM. The TGI (LOX IMVI melanoma) was 25 µM, the GI50 (UO-31 renal) was 64.3 µM and the TGI (UO-31 renal) was > 100 µM. For the same compound, the GI50 (RPMI-8226 leukemia) was 31.1 µM, the TGI (RPMI-8226 leukemia) was > 100 µM and the GI50 (HOP-62 NSCLC) was > 100 µM. For the same compound, the TGI (HOP-62 NSCLC) was > 100 µM, the GI50 (U251 CNS) was 21.8 µM and the TGI (U251 CNS) was 78.9 µM. For the same compound, the GI50 (SF-268 CNS) was 17.6 µM, the TGI (SF-268 CNS) was 46.1 µM and the GI50 (T-47D breast) was 82.9 µM. The TGI (T-47D breast) was > 100 µM, the GI50 (BT-549 breast) was 22.5 µM and the TGI (BT-549 breast) was 54.7 µM. For the same compound, the GI50 (M14 melanoma) was 46.5 µM, the TGI (M14 melanoma) was > 100 µM and the GI50 (SN12C renal) was 26.7 µM. For the same compound, the TGI (SN12C renal) was 99.7 µM, the GI50 (SF-295 CNS) was 25.7 µM and the TGI (SF-295 CNS) was 91.5 µM. The GI50 (MOLT-4 leukemia) was 9.62 µM, the TGI (MOLT-4 leukemia) was > 100 µM and the GI50 (HT29 colon) was 51.5 µM. For the same compound, the TGI (HT29 colon) was > 100 µM, the GI50 (MALME-3M melanoma) was 41.4 µM and the TGI (MALME-3M melanoma) was 82.7 µM. For the same compound, the GI50 (HL-60(TB) leukemia) was 34.1 µM, the TGI (HL-60(TB) leukemia) was > 100 µM and the GI50 (UACC-62 melanoma) was 28.3 µM. The TGI (UACC-62 melanoma) was > 100 µM, the GI50 (SK-OV-3 ovarian) was 88.9 µM and the TGI (SK-OV-3 ovarian) was > 100 µM. For the same compound, the GI50 (NCI-H226 lung) was 38.5 µM, the TGI (NCI-H226 lung) was > 100 µM and the GI50 (COLO 205 colon) was 63.4 µM. The TGI (COLO 205 colon) was > 100 µM, the GI50 (NCI-H522 lung) was 22.6 µM and the TGI (NCI-H522 lung) was 59.7 µM. For the same compound, the GI50 (UACC-257 melanoma) was 38.2 µM, the TGI (UACC-257 melanoma) was > 100 µM and the GI50 (TK-10 renal) was 50.4 µM. For the same compound, the TGI (TK-10 renal) was > 100 µM, the GI50 (CCRF-CEM leukemia) was 6.45 µM and the TGI (CCRF-CEM leukemia) was > 100 µM. The GI50 (SR leukemia) was 8.35 µM, the TGI (SR leukemia) was > 100 µM and the GI50 (SK-MEL-28 melanoma) was 24.6 µM. For the same compound, the TGI (SK-MEL-28 melanoma) was 62.4 µM, the GI50 (HOP-92 NSCLC) was > 100 µM and the TGI (HOP-92 NSCLC) was > 100 µM. The GI50 (HCT-15 colon) was 31.7 µM and the TGI (HCT-15 colon) was > 100 µM.
